Data set [1] concerns the target T1, XC_3703 (Xanthomonas campestris, UniProt Q4UQD0).
T1 construct: full-length, synthesized gene in pET47b, E. coli BL21(DE3), N-terminal His6 tag cut by 3C protease
Description: isothermal titration calorimetry. It is filed as binding. A general note: ITC needs no label: the signal is the heat of the interaction.

The target of a further data set is T2, Clocel_3875 (Clostridium cellulovorans, UniProt D9SKW9).
T2 construct: recombinant, N-terminal His6 tag cleaved with 3C protease
Description: biochemical. Set-up: isothermal titration calorimetry of nucleotide binding to purified recombinant YajQ family protein. As to the method:
(§1) The ability of XC_3703 to bind different nucleotides including cyclic di-GMP was further examined using isothermal titration calorimetry (ITC) with the purified protein (see Materials and Methods ). The full-length XC_3703 protein bound cyclic di-GMP with high affinity with a K d of 2 µM (Figure 1B; Table S2). It appeared that binding was endothermic in nature, which is a characteristic of a binding mechanism that favours hydrogen bonding and hydrophobic interactions, [16]. […] The observed binding affinity is within the range of physiological cyclic di-GMP levels observed in Xcc and is similar to the binding affinity of a number of established cyclic di-GMP effector proteins. […] To examine whether cyclic di-GMP binding was a common feature of this family, recombinant YajQ-like proteins from various bacteria including Escherichia coli, Pseudomonas aeruginosa, Stenotrophomonas maltophilia, Bacillus cereus and Clostridium species were purified and their ability to bind different nucleotides was assessed. […] The DNA fragments encoding the proteins of interest were synthesized by Gene Oracle in pGOv4 and sub-cloned into pET47b or pLAFR3 before transformation into E. coli BL21 (DE3). Genomic regions are described in Table S7. BL21 (DE3) cells were grown in LB media and induced with 0.25 mM IPTG; protein overexpression was carried out at 37°C for 1 h. Purification was achieved by Ni^2+ affinity chromatography using the N-terminal His6 tag followed by tag cleavage using recombinant 3C protease.

The target of another data set is T3, YajQ (Escherichia coli, UniProt P0A8E7).
T3 construct: recombinant, N-terminal His6 tag cleaved with 3C protease
Description: biochemical. Set-up: isothermal titration calorimetry of nucleotide binding to purified recombinant YajQ family protein. As to the method:
as §1

A further data set has as its target T4, PA4395 (Pseudomonas aeruginosa, UniProt Q9HW11).
T4 construct: recombinant, synthesized gene in pET47b, E. coli BL21(DE3), N-terminal His6 tag cut by 3C protease; locus tag is of strain PAO1 (PA14 used in mice)
Description: isothermal titration calorimetry. It counts as binding. From the text:
isothermal titration calorimetry on PA4395 | affinity for cyclic di-GMP binding was only seen in YajQ family proteins from P. aeruginosa (PA4395)

Another data set concerns the target T5, Smlt4090 (Stenotrophomonas maltophilia, UniProt B2FHW7).
T5 construct: recombinant, synthesized gene in pET47b, E. coli BL21(DE3), N-terminal His6 tag cut by 3C protease
Description: isothermal titration calorimetry. It counts as binding. From the text: isothermal titration calorimetry on Smlt4090 | YajQ family proteins from P. aeruginosa (PA4395) and S. maltophilia (Smlt4090)

For data set [2], the target named is T1, XC_3703. In words: biochemical. Further details: isothermal titration calorimetry of nucleotide binding to purified recombinant YajQ family protein. The method, then: as §1
Data set [3] has as its target T6, XC_3703 (YajQ family) (Xanthomonas campestris pv. campestris 8004) (UniProt Q4UQD0).
T6 sequence: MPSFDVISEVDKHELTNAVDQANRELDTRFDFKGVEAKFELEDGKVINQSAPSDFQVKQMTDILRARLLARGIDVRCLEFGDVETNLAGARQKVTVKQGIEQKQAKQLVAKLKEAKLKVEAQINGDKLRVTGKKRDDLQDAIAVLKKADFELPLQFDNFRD
Description: EMSA. In general terms: In EMSA bound probe runs differently from free probe, usually more slowly.

T3 sequence (P0A8E7 whole entry): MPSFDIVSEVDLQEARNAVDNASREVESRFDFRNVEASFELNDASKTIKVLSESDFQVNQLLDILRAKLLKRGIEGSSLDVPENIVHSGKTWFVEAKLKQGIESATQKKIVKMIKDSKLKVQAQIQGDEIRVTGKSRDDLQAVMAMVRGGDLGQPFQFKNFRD
T2 sequence (D9SKW9 entry or part of it): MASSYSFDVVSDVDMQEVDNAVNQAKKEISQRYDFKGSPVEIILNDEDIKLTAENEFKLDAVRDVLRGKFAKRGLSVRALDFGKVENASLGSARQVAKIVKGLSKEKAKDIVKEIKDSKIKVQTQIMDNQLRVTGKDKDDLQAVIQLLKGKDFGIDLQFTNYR
T5 sequence (B2FHW7 whole entry): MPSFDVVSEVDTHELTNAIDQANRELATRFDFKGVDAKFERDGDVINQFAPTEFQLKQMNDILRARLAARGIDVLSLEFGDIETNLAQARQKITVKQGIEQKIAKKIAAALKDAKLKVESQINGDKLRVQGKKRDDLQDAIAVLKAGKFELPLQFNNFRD
T4 sequence (Q9HW11 whole entry): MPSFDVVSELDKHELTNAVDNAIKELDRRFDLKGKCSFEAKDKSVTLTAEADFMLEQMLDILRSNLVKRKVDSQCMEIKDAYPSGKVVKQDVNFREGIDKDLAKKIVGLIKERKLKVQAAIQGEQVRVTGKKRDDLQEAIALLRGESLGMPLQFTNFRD

As a reminder, the Kd is the concentration at which binding is half-saturated. Regarding `Nc1ncnc2c1ncn2[C@@H]1O[C@H](COP(=O)(O)OP(=O)(O)OP(=O)(O)O)[C@@H](O)[C@H]1O` [ATP], the Kd at XC_3703 [1] (read-out: Kd) came out at 3000 µM; at Clocel_3875 it was 21.1 µM; on YajQ, 28.2 µM.
The like results for `Nc1nc2c(ncn2[C@@H]2O[C@H](COP(=O)(O)OP(=O)(O)OP(=O)(O)O)[C@@H](O)[C@H]2O)c(=O)[nH]1` [GTP] were, in that order, 13000 µM, 31 µM and 34.3 µM.
On XC_3703 [1], `Nc1ncnc2c1ncn2[C@@H]1O[C@@H]2COP(=O)(O)O[C@H]3[C@@H](O)[C@H](n4cnc5c(N)ncnc54)O[C@@H]3COP(=O)(O)O[C@H]2[C@H]1O` [cyclic di-AMP] had a Kd of 900 µM.
Turning to `Nc1nc2c(ncn2[C@@H]2O[C@@H]3CO[P@](=O)(O)O[C@H]4[C@@H](O)[C@H](n5cnc6c(=O)[nH]c(N)nc65)O[C@@H]4CO[P@](=O)(O)O[C@H]3[C@H]2O)c(=O)[nH]1` [cyclic di-GMP], the dissociation constant (Kd) worked out at 6.98 µM on PA4395, 2 µM on XC_3703 [1], 7.91 µM on Smlt4090 and 2.2 µM on XC_3703 [2].
Take “GGCATCGAACCGGCCGCACGTTTCGCGGCTGTTGTGCAGTGAATACGTATGCACAGGGTCAATGCTGCGCCGCGATGCGCGCTTAGCATCACCGCGCGCCGCACGCCGTGGGGCGCGCTTTCCGGAACAGGGGCCGGAGGGCATTGCTGCATGCATCGCTGTGCGGGATGCGTGCGTCCACTGATCAGGAGACACACCCG (double strand) [aaeB promoter probe]”: the binding entry in data set [3] is “no binding”.

For the origin of these results see article PMC4199771, “Novel Cyclic di-GMP Effectors of the YajQ Protein Family Control Bacterial Virulence” (PLoS Pathogens, 2014).
